Results from patent US8933039B2 (NPS Pharmaceuticals, Inc., priority 1995, dated 2015).
Non-standard residues stand in square brackets, D forms with d. Residues, ends and D or L forms follow the SMILES beside them. Tle = CC(C)(C)[C@H](N)C(=O)O

Key:
DPP-IV [1] = target: T1, DPP-IV (Homo sapiens, UniProt P27487); experiment: in vitro; conditions: isolated enzyme dpp iv, pH 7.4, % Cleaved by DPP-IV
CD1 mice = experiment: Intestinotrophic activity assessment: small bowel weight in mice; format: in vivo; conditions: for % Increase in small bowel weight: CD1 mice, 2.5 μg peptide s.c. b.i.d. in PBS, sacrificed 10 or 14 days, relative to vehicle only; for intestinotrophic activity compared with the naturally occurring molecule / rGLP-2 (in words): comment on Table 1, CD1 mice; for % Activity (small bowel inducing activity relative to native rat GLP-2(1-33) = 100%): mice, as Example 4
Procedure, shortened: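 Activity expressed against native rat GLP-2(1-33) (100%) and as percent bowel-weight change over vehicle controls, from excised pylorus-to-cecum small bowel. Dosing: 2.5 μg peptide subcutaneously twice daily to 6-week female CD1 mice (n=3-4), killed at day 10 or 14 after fasting ≥20 h.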

human placental DPP-IV = human placental DPP-IV (Homo sapiens, UniProt P27487); experiment: Assay for resistance to dipeptidyl peptidase IV (RP-HPLC of cleavage product); conditions: human placental DPP-IV 0.125 mU, peptide 0.2 mg/ml, PBS pH 7.4, 37° C.
DPP-IV [2] = target: T1, DPP-IV; experiment: as above; conditions: human, isolated human placental DPP-IV (dipeptidyl peptidase IV)
Fisher 334 DPP-IV-rats = experiment: Small bowel weight in DPP-IV deficient Fisher rats; format: in vivo; conditions: 20 μg b.i.d. s.c. in PBS, vs vehicle
Procedure: (§1) The following experiments were conducted to confirm that the increase in bowel weight seen in experimental animals treated with DPP-IV resistant analogs of GLP-2, compared with animals treated with wild-type GLP-2, was attributable in part to the DPP-IV resistant nature of the molecules. This experiment took advantage of the availability of a DPP-IV deficient rat strain, Fisher 334 DPP-IV-rats. The effect of rGLP-2 injections on small bowel weight in the Fisher DPP-IV deficient rats was compared to that in normal Sprague-Dawley rats.
(§2) In the following experiments the Sprague-Dawley rats were injected s.c. twice daily with rGLP-2 in the Gelatin formulation. The Fisher rats were injected s.c. twice daily with GLP-2 peptides (both rGLP-2, and rGLP-2 analogs) in PBS.

[3] = tested on: Fisher 344 wild-type rats; experiment: Small bowel weight in Fisher 344 wild-type rats; format: in vivo; conditions: 20 μg b.i.d. s.c. in PBS, over vehicle control
Procedure: as §2

[4] = tested on: dipeptidyl peptidase IV (DPP-IV); experiment: human placental DPP-IV (Calbiochem), 0.125 mU, added to test peptide in PBS at pH 7.4; conditions: 37° C., up to 24 hours
Sprague-Dawley rats = experiment: Small bowel weight in normal Sprague-Dawley rats; format: in vivo; conditions: gelatin formulation, vs vehicle
Procedure: as §1, §2

[5] = pH 7.4, % Cleaved by DPP-IV, as Example 3: human placental DPP-IV, 37° C., PBS pH 7.4

T1 sequence (P27487 whole entry): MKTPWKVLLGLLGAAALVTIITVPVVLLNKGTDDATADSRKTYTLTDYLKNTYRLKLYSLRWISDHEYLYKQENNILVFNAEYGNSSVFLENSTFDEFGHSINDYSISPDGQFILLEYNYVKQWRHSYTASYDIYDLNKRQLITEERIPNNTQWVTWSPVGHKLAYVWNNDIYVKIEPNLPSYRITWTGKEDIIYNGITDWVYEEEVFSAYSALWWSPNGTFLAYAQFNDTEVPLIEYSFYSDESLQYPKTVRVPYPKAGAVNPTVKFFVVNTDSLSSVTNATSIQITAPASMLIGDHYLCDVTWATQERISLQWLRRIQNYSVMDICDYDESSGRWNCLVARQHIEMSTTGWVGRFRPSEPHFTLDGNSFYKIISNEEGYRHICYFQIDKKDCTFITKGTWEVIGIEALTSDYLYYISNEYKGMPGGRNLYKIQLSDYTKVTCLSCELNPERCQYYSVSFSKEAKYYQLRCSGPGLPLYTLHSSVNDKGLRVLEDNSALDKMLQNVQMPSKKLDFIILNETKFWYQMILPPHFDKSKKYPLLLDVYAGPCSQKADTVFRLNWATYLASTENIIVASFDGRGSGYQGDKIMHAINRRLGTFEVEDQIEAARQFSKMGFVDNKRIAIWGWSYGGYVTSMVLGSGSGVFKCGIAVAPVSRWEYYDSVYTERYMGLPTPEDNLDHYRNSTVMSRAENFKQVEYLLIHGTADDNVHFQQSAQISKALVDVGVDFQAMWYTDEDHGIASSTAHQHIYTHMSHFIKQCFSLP
human placental DPP-IV, sequence (P27487 whole entry): as above

not cleaved [4] [% cleaved by DPP-IV]	Molecule	% Increase in small bowel weight (CD1 mice) [%]	% Activity (small bowel inducing activity relative to native rat GLP-2(1-33) = 100%) (CD1 mice) [%]	further results
0	[tBuGly2]hGLP-2 (H-H[Tle]DGSFSDEMNTILDNLAARDFINWLIQTKITD-OH; SMILES CC[C@H](C)[C@H](NC(=O)[C@H](Cc1ccccc1)NC(=O)[C@H](CC(=O)O)NC(=O)[C@H](CCCNC(=N)N)NC(=O)[C@H](C)NC(=O)[C@H](C)NC(=O)[C@H](CC(C)C)NC(=O)[C@H](CC(N)=O)NC(=O)[C@H](CC(=O)O)NC(=O)[C@H](CC(C)C)NC(=O)[C@@H](NC(=O)[C@@H](NC(=O)[C@H](CC(N)=O)NC(=O)[C@H](CCSC)NC(=O)[C@H](CCC(=O)O)NC(=O)[C@H](CC(=O)O)NC(=O)[C@H](CO)NC(=O)[C@H](Cc1ccccc1)NC(=O)[C@H](CO)NC(=O)CNC(=O)[C@H](CC(=O)O)NC(=O)[C@@H](NC(=O)[C@@H](N)Cc1c[nH]cn1)C(C)(C)C)[C@@H](C)O)[C@@H](C)CC)C(=O)N[C@@H](CC(N)=O)C(=O)N[C@@H](Cc1c[nH]c2ccccc12)C(=O)N[C@@H](CC(C)C)C(=O)N[C@H](C(=O)N[C@@H](CCC(N)=O)C(=O)N[C@H](C(=O)N[C@@H](CCCCN)C(=O)N[C@H](C(=O)N[C@H](C(=O)N[C@@H](CC(=O)O)C(=O)O)[C@@H](C)O)[C@@H](C)CC)[C@@H](C)O)[C@@H](C)CC)	–	–	–
0	[Ala1,Gly2]hGLP-2(1-33) (H-AGDGSFSDEMNTILDNLAARDFINWLIQTKITD-OH)	–	–	–
0	[Asp1]hGLP-2(1-33) (H-DADGSFSDEMNTILDNLAARDFINWLIQTKITD-OH)	–	–	–

Further lines, the molecule ahead of its results:

Molecule	not cleaved [4] [% cleaved by DPP-IV]	% Increase in small bowel weight (CD1 mice) [%]	% Activity (small bowel inducing activity relative to native rat GLP-2(1-33) = 100%) (CD1 mice) [%]	further results
CC[C@H](C)[C@H](NC(=O)[C@H](Cc1ccccc1)NC(=O)[C@H](CC(=O)O)NC(=O)[C@H](CCCNC(=N)N)NC(=O)[C@H](C)NC(=O)[C@H](C)NC(=O)[C@H](CC(C)C)NC(=O)[C@H](CC(N)=O)NC(=O)[C@H](CC(=O)O)NC(=O)[C@H](CC(C)C)NC(=O)[C@@H](NC(=O)[C@@H](NC(=O)[C@H](CC(N)=O)NC(=O)[C@H](CCSC)NC(=O)[C@H](CCC(=O)O)NC(=O)[C@H](CC(=O)O)NC(=O)[C@H](CO)NC(=O)[C@H](Cc1ccccc1)NC(=O)[C@H](CO)NC(=O)CNC(=O)[C@H](CC(=O)O)NC(=O)CNC(=O)[C@@H](N)Cc1c[nH]cn1)[C@@H](C)O)[C@@H](C)CC)C(=O)N[C@@H](CC(N)=O)C(=O)N[C@@H](Cc1c[nH]c2ccccc12)C(=O)N[C@@H](CC(C)C)C(=O)N[C@H](C(=O)N[C@@H](CCC(N)=O)C(=O)N[C@H](C(=O)N[C@@H](CCCCN)C(=O)N[C@H](C(=O)N[C@H](C(=O)N[C@@H](CC(=O)O)C(=O)O)[C@@H](C)O)[C@@H](C)CC)[C@@H](C)O)[C@@H](C)CC [[Gly2]hGLP-2(1-33)]	–	59	300	metabolised at 24 h, 0.19 mg/ml (DPP-IV [1]): 0%; intestinotrophic activity compared with the naturally occurring molecule / rGLP-2 (in words) (CD1 mice): substantially increased
H-HGDGSFSDEMNTILDNLATRDFINWLIQTKITD-OH [[Gly2]ratGLP-2(1-33)]	–	70	196	cleaved by DPP-IV after the 24 hour incubation (human placental DPP-IV): No cleavage products were detected; metabolised at 24 h, 0.19 mg/ml (DPP-IV [2]; [5]): 0%; intestinotrophic activity compared with the naturally occurring molecule / rGLP-2 (in words) (CD1 mice): greatly enhanced; increase in % change in small bowel weight (Fisher 334 DPP-IV-rats): 50-60%; increase in small bowel weight [3]: 75-85%
[Gln2]hGLP-2(1-33) (H-HQDGSFSDEMNTILDNLAARDFINWLIQTKITD-OH)	0	–	–	–
H-HADGSFSDEMNTILDNLATRDFINWLIQTKITD-OH [ratGLP-2(1-33), reference compound]	–	45	100	metabolised at 24 h, 0.19 mg/ml (DPP-IV [2]; [5]): 58%; metabolised at 24 h, 0.19 mg/ml (DPP-IV [2]; pH 7.4, cleaved by DPP-IV after the 24 hour incubation, human placental DPP-IV 0.125 mU, peptide 0.2 mg/ml, PBS pH 7.4, 37° C.): 22%; % change in small bowel weight (Sprague-Dawley rats; 2.5 μg b.i.d. s.c.): no % change; % change in small bowel weight (Sprague-Dawley rats; 25 μg b.i.d. s.c.): no % change; increase in % change in small bowel weight (Fisher 334 DPP-IV-rats): 40-50%
CC[C@H](C)[C@H](NC(=O)[C@H](Cc1ccccc1)NC(=O)[C@H](CC(=O)O)NC(=O)[C@H](CCCNC(=N)N)NC(=O)[C@@H](NC(=O)[C@H](C)NC(=O)[C@H](CC(C)C)NC(=O)[C@H](CC(N)=O)NC(=O)[C@H](CC(=O)O)NC(=O)[C@H](CC(C)C)NC(=O)[C@@H](NC(=O)[C@@H](NC(=O)[C@H](CC(N)=O)NC(=O)[C@H](CCSC)NC(=O)[C@H](CCC(=O)O)NC(=O)[C@H](CC(=O)O)NC(=O)[C@H](CO)NC(=O)[C@H](Cc1ccccc1)NC(=O)[C@H](CO)NC(=O)CNC(=O)[C@H](CC(=O)O)NC(=O)[C@@H](C)NC(=O)[C@@H](N)Cc1c[nH]cn1)[C@@H](C)O)[C@@H](C)CC)[C@@H](C)O)C(=O)N[C@@H](CC(N)=O)C(=O)N[C@@H](Cc1c[nH]c2ccccc12)C(=O)N[C@@H](CC(C)C)C(=O)N[C@H](C(=O)N[C@@H](CCC(N)=O)C(=O)N[C@H](C(=O)N[C@@H](CCCCN)C(=O)N[C@H](C(=O)N[C@H](C(=O)N[C@@H](CC(=O)O)C(=O)O)[C@@H](C)O)[C@@H](C)CC)[C@@H](C)O)[C@@H](C)CC [[DAla2]ratGLP-2(1-33)] (H-H[dA]DGSFSDEMNTILDNLATRDFINWLIQTKITD-OH)	–	86	210	cleaved by DPP-IV after the 24 hour incubation (human placental DPP-IV): No cleavage products were detected; metabolised at 24 h, 0.19 mg/ml (DPP-IV [2]; [5]): 0%
[Ile2]hGLP-2(1-33) (H-HIDGSFSDEMNTILDNLAARDFINWLIQTKITD-OH)	0	–	–	–
Ac-ratGLP-2(1-33) (Ac-HADGSFSDEMNTILDNLATRDFINWLIQTKITD-OH)	0	–	–	–
[Met2]hGLP-2(1-33) (H-HMDGSFSDEMNTILDNLAARDFINWLIQTKITD-OH)	0	–	–	–
[Gly2,Ala3]hGLP-2(1-33) (H-HGAGSFSDEMNTILDNLAARDFINWLIQTKITD-OH)	0	–	–	–
